Literature values, collected in patent US20060057620A1, “Treatment of HIV infection” (priority 2004, published 2006).

System: circulating T-cells
Settings: FIG. 1

alemtuzumab
time to full recovery of T-cells (after a single dose): ≥ 3 months
killing of circulating T-cells (T-cell depletion) (single dose): able to kill all circulating T-cells
